According to paper PMC11225352, “A multicenter, randomized, double-blind, placebo-controlled ascending dose study to evaluate the safety, tolerability, pharmacokinetics (PK) and pharmacodynamic (PD) effects of Posiphen in subjects with early Alzheimer’s Disease” (Alzheimer's Research & Therapy, 2024):

Legend:
Aβ40 [1] = assay: SILK analysis of CSF Aβ40 (fractional synthesis rate, IP-MS); format: in vivo, human
Experimental: From June 5, 2017 to December 31, 2021, we conducted the DISCOVER randomized clinical trial at five participating sites, coordinated by the Alzheimer’s Disease Cooperative Study (ADCS) at UCSD, with funding from the National Institute on Aging and investigational product provided by Annovis, Inc. This study was approved by each participating site’s IRB and was registered on https://www.clinicaltrials.gov/ as NCT02925650. The trial was conducted according to the guidelines of good clinical practice (GCP) and was monitored by the ADCS. A Data Safety Monitoring Board (DSMB) reviewed data for each cohort and for the study overall. […]
For the confinement visit, subjects arrived in the early morning after an overnight fast. […] After 36 h, intravenous lines and the CSF catheter were removed, vital signs were measured, physical exam performed, and blood and CSF were sent for routine laboratory studies. […]
For biochemical analysis to derive data for SILK, ^13C6-leucine was analyzed in plasma and CSF by mass spectrometry, and Aβ peptides in CSF were analyzed by immunoprecipitation-mass spectrometry (IP-MS) as previously described, by C2N Diagnostics (St Louis, MO). CSF levels of sAPPα, sAPPβ, Aβ38, 40 and 42 were analyzed by the ADCS Biomarker Core using Mesoscale Discovery (MSD) electrochemiluminescent assays (Mesoscale Discovery, Rockville, MD). […]

Aβ42 = assay: SILK analysis of CSF Aβ42 (fractional synthesis rate); format: in vivo, human; settings: after 21 days
Experimental: (§1) For biochemical analysis to derive data for SILK, ^13C6-leucine was analyzed in plasma and CSF by mass spectrometry, and Aβ peptides in CSF were analyzed by immunoprecipitation-mass spectrometry (IP-MS) as previously described, by C2N Diagnostics (St Louis, MO). CSF levels of sAPPα, sAPPβ, Aβ38, 40 and 42 were analyzed by the ADCS Biomarker Core using Mesoscale Discovery (MSD) electrochemiluminescent assays (Mesoscale Discovery, Rockville, MD). Levels of Posiphen and its N1 and N8 metabolites in plasma and CSF were measured by Charles River Laboratories (Montreal, CA) by high-performance liquid chromatographic mass spectrometry, with use of deuterated Posiphen (procured by Charles River Laboratories) as an internal standard.
For SILK, the fraction of labeled Aβ for Aβ38, 40, and 42 during 36 h after administration of study drug for each subject was calculated, as described. The FSR measures were calculated by fitting a line to the upslope of the CSF Aβ labeling data. It was assumed that the upslope occurred between hours 6–16 h after the start of confinement. […] The percentage of newly synthesized and degraded Aβ was estimated over 36 h by multiplying the […] concentration of Aβ measured at the start of confinement (i.e. at catheter placement; time = 0) by the percentage of Aβ that contains ^13C6-leucine at each time point. […]

Aβ40 [2] = assay: CSF Aβ40 level, screening to day 21 (MSD immunoassay); format: in vivo, human; settings: ANOVA with age and sex as covariates; p = 0.39
Experimental: as §1
(§2) Changes in CSF biomarkers from the screening to confinement (sample at time of placement of catheter) were compared in the treatment and placebo groups by ANOVA, with models that included age, sex and baseline MMSE, and further analysis stratified by treatment dose. A similar approach was taken to analyze changes in MMSE, ADAS-cog and NPI. Data were analyzed using R (version 4.2.2).

sAPPβ = assay: CSF sAPPβ level, screening to day 21 (MSD immunoassay); format: in vivo, human; settings: ANOVA with age and sex as covariates; p = 0.16
Experimental: as §1, §2

Total tau = assay: CSF total tau level, screening to day 21; format: in vivo, human
Experimental: as §2

[3] = test system: sAPPα, sAPPβ and total tau; set-up: method as in PMID 22791904; settings: four MCI subjects, 60 mg four times per day for 10 days; cited from earlier work
APP mRNA = test system: APP mRNA; set-up: method as in PMID 20558735, PMID 22693681; settings: resulting in decreased production of APP and Aβ; cited from earlier work
APP = test system: APP; set-up: method as in PMID 36641607; settings: mild AD (n = 14), 80 mg once per day, up to 27 days; not significant; cited from earlier work

SMILES: CN1CC[C@]2(C)c3cc(OC(=O)Nc4ccccc4)ccc3N(C)[C@H]12 [Posiphen]
- effect on FSR for CSF Aβ40 vs. placebo (Aβ40 [1]; after 21 days, FSR from hours 6–16 and automated method, no dose-dependent effect): no significant effect
- peak in labeling (SILK curve) (Aβ40 [1]; single 180 mg per day subject, previous study maximum 24.7 h): about 28 h
- effect on FSR estimates for Aβ42 vs. placebo (Aβ42): no significant effect
- CSF Aβ40, Treatment difference (Posiphen – placebo) (Aβ40 [2]): -1.4 (1.57) p = 0.39 pg/mL
- CSF sAPPβ, Treatment difference (Posiphen – placebo) (sAPPβ): 47.9 (31.6) p = 0.16 pg/mL
- CSF Total tau, Treatment difference (Posiphen – placebo) (Total tau; ANOVA with age and sex as covariates, p = 0.39): 133 (149) p = 0.39 pg/mL
- CSF Total tau, Day 21 (Total tau; Posiphen arm, all doses (n = 10), screening 751 ± 404 (n = 11)): 849 ± 369 (n = 10) pg/mL
- CSF Total tau, LS mean change (Total tau; screening to day 21, SEM 79.1, placebo 53.7): 186.4 pg/mL
- mean CSF sAPPα, sAPPβ and total tau at 10 days compared to pretreatment [3]: decreased
- translation of APP mRNA (APP mRNA): decreased
- CSF APP before and after treatment (APP): small reduction
